Values after ≈ are worked out from the molar mass of the structure shown. Like-named read-outs stand apart in the source and are kept apart here. Marks after values point to notes of the source that are not given here.
Assays:
[1] = tested on: Pseudomonas aeruginosa CFA 24-1, clinical mucoid strain (R80); test: MIC assay, CAMHB with alginate oligomer, no visible growth; format: cell-based; conditions: R80
[2] = tested on: Pseudomonas aeruginosa MDR R22 from China (V1); test: as above; format: cell-based; conditions: V1 MDR R22 PA
Source text: The study described in Example 1 was repeated with the following strains of bacteria and antibiotics as detailed in Tables 4, 5 and 6.

[3] = tested on: Pseudomonas aeruginosa MDR 301 from Poland (V2); test: as above; format: cell-based; conditions: V2 MDR 301 PA
[4] = tested on: Klebsiella pneumoniae KP05 506 from India (V3); test: as above; format: cell-based; conditions: for MIC: V3 KP05 506
V11 5702 (Wales) E. coli = test: as above; format: cell-based; conditions: Table 5, V11 MDR E.coli
V22 6056 Acinetobacter = test: as above; format: cell-based, Acinetobacter lwoffii; conditions: Table 5, V22 MDR Acin. lwoff
[5] = tested on: V23 1322 Burkholderia cepacia; test: as above; format: cell-based
[6] = tested on: V19 non MDR Acinetobacter baumannii; test: MIC assay, CAMHB with M-block alginate oligomer, no visible growth; format: cell-based; conditions: Table 7, V19 non MDR Acin. baum
Source text: The study described in Example 1 was repeated with the following strains of Acinetobacter baumannii, antibiotics and M-block alginate oligomer in place of OligoG CF-5/20 as detailed in Table 7. The M-block oligomer is 100% M with a DPn of 15 to 18,

[7] = tested on: Pseudomonas aeruginosa, Klebsiella pneumoniae and Acinetobacter baumannii strains; test: MIC assay of Example 1, summary over the strains; format: cell-based; conditions: Example 1, Tables 1 and 2, all strains
MDR Pseudomonas strains = test: MIC assay of Example 1, summary over the MDR Pseudomonas strains; format: cell-based, Pseudomonas aeruginosa
[8] = tested on: MDR strains of Pseudomonas aeruginosa, Klebsiella pneumoniae, Burkholderia cepacia, Acinetobacter lwoffii, Acinetobacter baumannii and E. coli; test: MIC assay of Example 2, summary over the strains of Tables 4, 5 and 6; format: cell-based; conditions: Example 2, Tables 4, 5 and 6
[9] = tested on: Pseudomonas aeruginosa (MDR 301, PSA, V2); test: MIC-assay, Mueller-Hinton broth with G-block alginate, 384-well, OD600; conditions: Pseudomonas aeruginosa, Table 8, V2
[10] = tested on: Burkholderia cepacia (LMG18941, ATCC-BAA-246); test: as above
[11] = tested on: Acinetobacter lwoffii (6056, V22); test: as above
[12] = tested on: Acinetobacter baumannii (MDR ACB, Libya, V4); test: as above
[13] = Pseudomonas aeruginosa, Table 1, OligoCF-5/20 0G, read-out: MIC
[14] = Pseudomonas aeruginosa, Table 1, OligoCF-5/20 +2% G, read-out: MIC
[15] = Pseudomonas aeruginosa, Table 1, OligoCF-5/20 +6% G, read-out: MIC
[16] = Pseudomonas aeruginosa, Table 1, OligoCF-5/20 +10% G, read-out: MIC
[17] = Table 9, G-block (OligoCF-5/20) 0%
[18] = Table 9, G-block (OligoCF-5/20) 2%
[19] = Table 9, G-block (OligoCF-5/20) 6%
[20] = Table 9, G-block (OligoCF-5/20) 10%

Structure (SMILES): CC[C@H]1OC(=O)[C@H](C)[C@@H](O[C@H]2C[C@@](C)(OC)[C@@H](O)[C@H](C)O2)[C@H](C)[C@@H](O[C@@H]2O[C@H](C)C[C@H](N(C)C)[C@H]2O)[C@](C)(O)C[C@@H](C)CN(C)[C@H](C)[C@@H](O)[C@]1(C)O [Azithromycin]
- MIC [1, 13]: 256 µg/mL (≈ 342 µM)
- MIC [1, 14]: 128 µg/mL (≈ 171 µM)
- MIC [1, 15]: 64 µg/mL (≈ 85.4 µM)
- MIC [1, 16]: 8 µg/mL (≈ 10.7 µM)
- MIC ([1]; Table 2, OligoCF-5/20 0G): 256^†
- MIC ([1]; Table 2, OligoCF-5/20 +2% G): 128^†
- MIC ([1]; Table 2, OligoCF-5/20 +6% G): 64^†
- MIC ([1]; Table 2, OligoCF-5/20 +10% G): 8^†
- MIC [2, 13]: 64 µg/mL (≈ 85.4 µM)
- MIC [2, 14]: 64 µg/mL (≈ 85.4 µM)
- MIC [2, 15]: 64 µg/mL (≈ 85.4 µM)
- MIC [2, 16]: 32 µg/mL (≈ 42.7 µM)
- MIC ([2]; Table 2, OligoCF-5/20 0G): 64^†
- MIC ([2]; Table 2, OligoCF-5/20 +2% G): 64 µg/mL (≈ 85.4 µM)
- MIC ([2]; Table 2, OligoCF-5/20 +6% G): 64 µg/mL (≈ 85.4 µM)
- MIC ([2]; Table 2, OligoCF-5/20 +10% G): 32^†
- MIC [3, 13]: 64 µg/mL (≈ 85.4 µM)
- MIC [3, 14]: 64 µg/mL (≈ 85.4 µM)
- MIC [3, 15]: 32 µg/mL (≈ 42.7 µM)
- MIC [3, 16]: 16 µg/mL (≈ 21.4 µM)
- MIC ([3]; Table 2, OligoCF-5/20 0G): 64^†
- MIC ([3]; Table 2, OligoCF-5/20 +2% G): 64 µg/mL (≈ 85.4 µM)
- MIC ([3]; Table 2, OligoCF-5/20 +6% G): 32^†
- MIC ([3]; Table 2, OligoCF-5/20 +10% G): 16^†
- effectiveness in conjunction with alginate oligomers ([4]; Example 1, KP05 506): more effective
- MIC ([4]; Klebsiella pneumoniae, Table 1, OligoCF-5/20 0G, read-out: MIC): 32 µg/mL (≈ 42.7 µM)
- MIC ([4]; Klebsiella pneumoniae, Table 1, OligoCF-5/20 +2% G, read-out: MIC): 16 µg/mL (≈ 21.4 µM)
- MIC ([4]; Klebsiella pneumoniae, Table 1, OligoCF-5/20 +6% G, read-out: MIC): 16 µg/mL (≈ 21.4 µM)
- MIC ([4]; Klebsiella pneumoniae, Table 1, OligoCF-5/20 +10% G, read-out: MIC): 8 µg/mL (≈ 10.7 µM)
- MIC ([4]; Table 2, OligoCF-5/20 0G): 32^†
- MIC ([4]; Table 2, OligoCF-5/20 +2% G): 16^†
- MIC ([4]; Table 2, OligoCF-5/20 +6% G): 16^†
- MIC ([4]; Table 2, OligoCF-5/20 +10% G): 8^†
- MIC (V11 5702 (Wales) E. coli; Escherichia coli, OligoCF-5/20 0G, read-out: MIC): 32 µg/mL (≈ 42.7 µM)
- MIC (V11 5702 (Wales) E. coli; OligoCF-5/20 +2% G): 16^† μg/ml
- MIC (V11 5702 (Wales) E. coli; OligoCF-5/20 +6% G): 16^† μg/ml
- MIC (V11 5702 (Wales) E. coli; OligoCF-5/20 +10% G): 32 µg/mL (≈ 42.7 µM)
- MIC (V22 6056 Acinetobacter; Acinetobacter, OligoCF-5/20 0G, read-out: MIC): < 0.25 µg/mL
- MIC (V22 6056 Acinetobacter; OligoCF-5/20 +2% G): <0.25 µg/mL
- MIC (V22 6056 Acinetobacter; OligoCF-5/20 +6% G): <0.25 µg/mL
- MIC (V22 6056 Acinetobacter; OligoCF-5/20 +10% G): <0.25 µg/mL
- MIC ([5]; Burkholderia cepacia, Table 5, V23 MDR Burk cep, OligoCF-5/20 0G, read-out: MIC): 128 µg/mL (≈ 171 µM)
- MIC ([5]; Burkholderia cepacia, Table 6, V23, Experiment 1 (18-03-10), OligoCF-5/20 0G, read-out: MIC): 64 µg/mL (≈ 85.4 µM)
- MIC ([5]; Burkholderia cepacia, Table 6, V23, Experiment 2 (18-03-10), OligoCF-5/20 0G, read-out: MIC): 32 µg/mL (≈ 42.7 µM)
- MIC ([5]; Burkholderia cepacia, Table 6, V23, Experiment 3 (19-03-10), OligoCF-5/20 0G, read-out: MIC): 16 µg/mL (≈ 21.4 µM)
- MIC ([5]; Table 5, V23 MDR Burk cep, OligoCF-5/20 +2% G): 64^† μg/ml
- MIC ([5]; Table 5, V23 MDR Burk cep, OligoCF-5/20 +6% G): 16^† μg/ml
- MIC ([5]; Table 5, V23 MDR Burk cep, OligoCF-5/20 +10% G): 4 µg/mL (≈ 5.34 µM)
- MIC ([5]; Table 6, V23, Experiment 1 (18-03-10), OligoCF-5/20 +2% G): 64 µg/mL (≈ 85.4 µM)
- MIC ([5]; Table 6, V23, Experiment 1 (18-03-10), OligoCF-5/20 +6% G): 64 µg/mL (≈ 85.4 µM)
- MIC ([5]; Table 6, V23, Experiment 1 (18-03-10), OligoCF-5/20 +10% G): 32^† μg/ml
- MIC ([5]; Table 6, V23, Experiment 2 (18-03-10), OligoCF-5/20 +2% G): 32 µg/mL (≈ 42.7 µM)
- MIC ([5]; Table 6, V23, Experiment 2 (18-03-10), OligoCF-5/20 +6% G): 16^† μg/ml
- MIC ([5]; Table 6, V23, Experiment 2 (18-03-10), OligoCF-5/20 +10% G): 16^† μg/ml
- MIC ([5]; Table 6, V23, Experiment 3 (19-03-10), OligoCF-5/20 +2% G): 16 µg/mL (≈ 21.4 µM)
- MIC ([5]; Table 6, V23, Experiment 3 (19-03-10), OligoCF-5/20 +6% G): 16 µg/mL (≈ 21.4 µM)
- MIC ([5]; Table 6, V23, Experiment 3 (19-03-10), OligoCF-5/20 +10% G): 16 µg/mL (≈ 21.4 µM)
- MIC ([6]; M-block oligomer 0M): 32 µg/mL (≈ 42.7 µM)
- MIC ([6]; M-block oligomer +2% M): 16 µg/mL (≈ 21.4 µM)
- MIC ([6]; M-block oligomer +6% M): 16 µg/mL (≈ 21.4 µM)
- MIC ([6]; M-block oligomer +10% M): 16 µg/mL (≈ 21.4 µM)
- change of MIC with increasing amounts of OligoG CF-5/20 [7]: decreasing MICs
- effectiveness when used in combination with the alginate oligomers (MDR Pseudomonas strains): more effective
- change of MIC with increasing amounts of OligoG CF-5/20 [8]: decreasing MICs
- MIC ([9]; G-block (OligoCF-5/20) 2%): 64 µg/mL (≈ 85.4 µM)
- MIC ([9]; G-block (OligoCF-5/20) 6%): 64 µg/mL (≈ 85.4 µM)
- MIC ([9]; G-block (OligoCF-5/20) 10%): 32 µg/mL (≈ 42.7 µM)
- MIC ([10]; ATCCBAA246|LMG18941, Table 8, G-block (OligoCF-5/20) 0%): 64 µg/mL (≈ 85.4 µM)
- MIC ([10]; ATCCBAA246|LMG18941, Table 8, G-block (OligoCF-5/20) 2%): 32 µg/mL (≈ 42.7 µM)
- MIC ([10]; ATCCBAA246|LMG18941, Table 8, G-block (OligoCF-5/20) 6%): 16 µg/mL (≈ 21.4 µM)
- MIC ([10]; ATCCBAA246|LMG18941, Table 8, G-block (OligoCF-5/20) 10%): 16 µg/mL (≈ 21.4 µM)
- MIC [11, 17]: < 2 µg/mL
- MIC [11, 18]: < 2 µg/mL
- MIC [11, 19]: < 2 µg/mL
- MIC [11, 20]: < 2 µg/mL
- MIC [12, 17]: 16 µg/mL (≈ 21.4 µM)
- MIC [12, 18]: 2 µg/mL (≈ 2.67 µM)
- MIC [12, 19]: < 1 µg/mL
- MIC [12, 20]: < 1 µg/mL

From US9801901B2, “Alginate oligomers for use in overcoming multidrug resistance in bacteria” (priority 2009, dated 2017)
